Results reported in ChEMBL document CHEMBL6178006, “Novel Spirocyclic WRN Helicase Inhibitors for Treating Cancer” (ACS Med Chem Lett, 2025).

Target: Bifunctional 3'-5' exonuclease/ATP-dependent helicase WRN (Homo sapiens, UniProt Q14191)
Assay: Inhibition of WRN helicase (500 to 942 residues)(unknown origin) using fluor/quencher-labeled forked double-stranded DNA substrate assessed as decrease in helicase unwinding activity preincubated for 1 hr followed by substrate addition measured after 1 hr in presence of ATP by fluorescence based assay

Bifunctional 3'-5' exonuclease/ATP-dependent helicase WRN, sequence (Q14191 whole entry, the tested form may be a part): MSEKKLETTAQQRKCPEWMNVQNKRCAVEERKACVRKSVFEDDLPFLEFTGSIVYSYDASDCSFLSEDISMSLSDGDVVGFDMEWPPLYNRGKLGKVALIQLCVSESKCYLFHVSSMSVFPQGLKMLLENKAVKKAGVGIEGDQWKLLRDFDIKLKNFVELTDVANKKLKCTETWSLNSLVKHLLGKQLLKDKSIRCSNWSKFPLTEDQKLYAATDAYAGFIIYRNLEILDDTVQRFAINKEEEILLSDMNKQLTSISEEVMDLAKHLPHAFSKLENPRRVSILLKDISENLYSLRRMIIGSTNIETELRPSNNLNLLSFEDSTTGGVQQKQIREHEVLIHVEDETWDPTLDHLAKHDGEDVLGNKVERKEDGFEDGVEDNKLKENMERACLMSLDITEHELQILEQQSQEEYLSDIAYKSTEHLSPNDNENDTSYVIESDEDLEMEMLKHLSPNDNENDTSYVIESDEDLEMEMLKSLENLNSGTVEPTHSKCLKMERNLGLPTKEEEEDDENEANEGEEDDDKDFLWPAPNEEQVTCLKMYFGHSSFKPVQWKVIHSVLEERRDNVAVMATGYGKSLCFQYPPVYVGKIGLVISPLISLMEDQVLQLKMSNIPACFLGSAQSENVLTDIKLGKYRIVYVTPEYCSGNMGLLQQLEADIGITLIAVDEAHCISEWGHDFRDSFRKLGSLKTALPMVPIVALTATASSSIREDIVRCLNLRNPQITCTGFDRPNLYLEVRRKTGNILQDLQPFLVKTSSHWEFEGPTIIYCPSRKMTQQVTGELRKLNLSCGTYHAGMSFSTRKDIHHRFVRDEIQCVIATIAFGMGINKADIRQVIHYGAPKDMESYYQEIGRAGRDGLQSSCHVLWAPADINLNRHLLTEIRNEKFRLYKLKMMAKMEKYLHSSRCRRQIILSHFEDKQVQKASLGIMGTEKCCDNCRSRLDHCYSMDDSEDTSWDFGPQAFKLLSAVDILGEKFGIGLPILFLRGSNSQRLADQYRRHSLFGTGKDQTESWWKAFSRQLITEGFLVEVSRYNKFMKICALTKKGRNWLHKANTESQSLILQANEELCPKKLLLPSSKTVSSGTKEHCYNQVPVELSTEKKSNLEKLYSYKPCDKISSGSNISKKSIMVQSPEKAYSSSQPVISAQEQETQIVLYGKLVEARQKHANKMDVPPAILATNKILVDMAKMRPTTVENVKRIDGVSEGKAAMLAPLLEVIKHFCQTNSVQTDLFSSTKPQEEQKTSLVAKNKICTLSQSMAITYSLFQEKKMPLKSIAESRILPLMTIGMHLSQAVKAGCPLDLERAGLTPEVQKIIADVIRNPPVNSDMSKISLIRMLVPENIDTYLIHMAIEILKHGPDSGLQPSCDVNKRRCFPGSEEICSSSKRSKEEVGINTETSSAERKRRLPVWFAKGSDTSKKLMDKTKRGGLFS

Row | Structure (SMILES) | IC50 [nM]
1 | CC1CC2(CCN(C(=O)c3ncccc3O)CC2)c2c1n(CC(=O)Nc1ccc(C(F)(F)F)cc1)c1nc(C3=CCOCC3)nn1c2=O (configuration not stated) | 1.9
2 | CC(=O)N1CC=C(c2nc3n(CC(=O)Nc4ccc(C(F)(F)F)cc4Cl)c4c(c(=O)n3n2)C2(CCN(C(=O)c3ncccc3O)CC2)CC4C)CC1 (configuration not stated) | 2
